# Entries after “also recorded” stand apart in the source; their conditions may differ. Like-named read-outs stand apart in the source and are kept apart here.
# Tests used:
# HepG2 = experiment: MTT cytotoxicity assay, HepG2; type: cell-based; details: Homo sapiens, read-out: IC50 HepG2
# Text: (§1) We selected four different cancer cell lines for antiproliferative screening in vitro, which we believed would provide sufficient data on the anticancer potential of the prepared harmirins (hepatocellular carcinoma—HepG2, colorectal adenocarcinoma, Dukes’ type C—SW620, colorectal carcinoma—HCT116, and breast adenocarcinoma—MCF-7). Additionally, we included one non-cancer cell line (embryonic kidney—HEK293T) to evaluate harmirins’ selectivity. The commonly used anticancer drug 5-FU and harmine were used as positive controls. Pre-screening was performed using 50 µM of the tested compound. Only compounds that led to more than 50% reduction in mitochondrial metabolic activity at 50 µM concentration were selected for further analysis. The selectivity index (SI) for each harmirin was calculated as a fractional ratio between the IC50 values for HEK293T and the cancer cell line MCF-7 or HCT116 since these two cell lines were the most susceptible to harmirins.
# (§2) The experiments were carried out on five human cell lines purchased from American Type Culture Collection (ATCC, PO BOX 1549, manassas, VA 20108, USA): HepG2 (hepatocellular carcinoma; ATCC® HB-8065™), SW620 (colorectal adenocarcinoma; ATCC® CCL-227™), HCT116 (colorectal carcinoma ATCC® CCL-247™), MCF-7 (breast adenocarcinoma, ATCC® HTB-22™), and HEK293T (embryonic kidney cells; ATCC® CRL-3216™). All cell lines were cultured as monolayers and maintained in Dulbecco’s modified Eagle medium (DMEM) (Capricorn Scientific, USA), supplemented with 10% fetal bovine serum (FBS) (Capricorn Scientific, USA), 100 U/mL penicillin, and 100 µg/mL streptomycin (Capricorn Scientific, USA) in a humidified atmosphere with 5% CO2 at 37 °C. Cells were seeded in 96-well plates (Corning, Durham, NC, USA) at 5000–7000 cells per well (depending on the cell doubling time of a specific cell line) in 0.1 mL media and cultured for 24 h. The next day, the medium was aspirated, and cells were treated for 72 h. Only the compounds that led to more than a 50% reduction in mitochondrial metabolic activity at a concentration of 50 µM were selected for further analysis. The following concentrations of selected compounds were used: 25, 10, 5, and 1 µM. Working dilutions were freshly prepared on the day of the testing. A fresh growth medium was added to untreated control cells, which were defined as 100% viable. DMSO (0.13%) in DMEM was considered a negative control. 5-Fluorouracil (5-FU) and harmine were used as positive controls. At the end of treatment, media was removed, and cells were incubated for 1 h with 0.5 mg/mL MTT (Abcam, Cambridge, MA, USA) dissolved in serum-deprived DMEM. The absorbance was directly proportional to cell viability. The MTT-containing media was then removed, and 0.1 mL isopropanol was added per well to lyse cells and dissolve formazan. The optical density was measured at 570 nm using a microplate reader (VICTOR3, PerkinElmer). Each test point was performed in triplicate. The IC50 values (concentration required to decrease viability by 50%) were calculated by using nonlinear regression on the sigmoidal dose–response plots and are expressed as mean ± SD.
# MCF-7 = experiment: MTT cytotoxicity assay, MCF-7; type: cell-based, human; details: for IC50: Homo sapiens, read-out: IC50 MCF-7; for SI (MCF-7): ratio IC50 HEK293T / IC50 MCF-7
# Text: as §1, §2
# MCF-7 cells [1] = experiment: Cell cycle analysis by flow cytometry (PI); type: cell-based, human; details: harmine 20 µM; for accumulation of cells in the subG1 phase (apoptotic cells) / effect on G1 phase of cell cycle / effect on percentage of cells in S phase: 12b 10 µM; for accumulation of cells in the subG1 phase (apoptotic cells): 48 h, data not shown; for effect on G1 phase of cell cycle / effect on percentage of cells in S phase: after 24 h (12b: persisted after 48 h)
# Description: To gain further insight into the potential mechanism of activity of 12b, and to examine whether and how the cell growth inhibition was associated with cell cycle regulation, we assessed its influence on the cell cycle of MCF-7 cells, 24 and 48 h after the treatment and compared it with the influence of the reference compound harmine (Figure 4).
# MCF-7 cells were seeded onto 6-well plates (3 × 10^5 cells per well). After 24 h, 12b was added at 10 µM concentration and harmine at 20 µM concentration. After 24 h or 48 h, the attached cells were trypsinized, combined with floating cells, washed with phosphate buffer saline (PBS), fixed with 70% ethanol, and stored at −20 °C. Immediately before analysis, the cells were washed with PBS and stained with 50 μg/mL of propidium iodide (PI) with the addition of 0.1 μg/μL of RNAse A. The stained cells were then analyzed by BD FACScalibur flow cytometer (20,000 counts were measured). The percentage of cells in each cell cycle phase was determined using FlowJo software (TreeStar Inc., USA). The tests were performed in duplicate and repeated in three separate experiments.
# HCT116 = experiment: MTT cytotoxicity assay, HCT116; type: cell-based, human; details: for IC50: Homo sapiens, read-out: IC50 HCT116; for SI (HCT116): ratio IC50 HEK293T / IC50 HCT116
# Text: as §1, §2
# MCF-7 cells [2] = experiment: Cell localization by fluorescence microscopy; type: cell-based, human; details: 10 µM, 30 min, MCF-7, DAPI filter
# Description: We further examined the intracellular distribution of the compound 12b in MCF-7 cells, based on its fluorescence properties. Therefore, we incubated MCF-7 cells for 30 min with the tested compound 12b and analyzed its localization by fluorescence microscopy (Figure 3). No autofluorescence was detected by examining untreated cells under typical imaging conditions.
# The MCF-7 cells were seeded on round microscopic coverslips placed in 24-well-plates (5 × 10^4 cells per well) and grown at 37 °C and 5% CO2 for 24 h in DMEM supplemented with FBS, penicillin, and streptomycin, as described above. Cells were then incubated with compound 12b (10 µM) for 30 min. Afterward, the medium was discharged, coverslips rinsed twice with PBS, placed on the microscopic slides, and immediately analyzed. The uptake and intracellular distribution of the tested derivative were analyzed under a fluorescence microscope (Olympus BX51) at 400 × magnification, using a DAPI filter. Images were captured with an Olympus DP70 Digital Camera.
# HEK293T = experiment: MTT cytotoxicity assay, HEK293T (non-cancer); type: cell-based, human; details: for IC50: Homo sapiens, HEK-293T, 72 h, read-out: IC50 Hek293T
# Text: as §1, §2
# SW620 = experiment: MTT cytotoxicity assay, SW620; type: cell-based; details: Homo sapiens, read-out: IC50 SW620
# Text: as §1, §2
# HeLa = tested on: HeLa; parameters: method as in doi:10.1002/slct.201601020; details: read-out: GI50 against HeLa; cited from earlier work
# HT-29 = tested on: HT-29; parameters: method as in PMID 26657602; details: read-out: IC50 against HT-29; cited from earlier work
# HGC-27 = tested on: HGC-27; parameters: method as in PMID 26657602; details: read-out: IC50 against HGC-27; cited from earlier work
smiles,measurement,setting,value
"Cc1ccc2oc(=O)cc(-n3cc(COc4ccc5c(c4)[nH]c4c(C)nccc45)nn3)c2c1 [12b, 6-Methyl-4-(4-(((1-methyl-9H-pyrido[3,4-b]indol-7-yl)oxy)methyl)-1H-1,2,3-triazol-1-yl)-2H-chromen-2-one]",IC50,"HepG2; HepG2, MTT, 72 h, mean ± SD",19.5 ± 1.5 µM
same,IC50,"MCF-7; MCF7, MTT, 72 h, mean ± SD",6.9 ± 0.7 µM
same,"activity against MCF-7, fold stronger than 5-FU",MCF-7; compared with 5-FU IC50,3.4 fold
same,"activity against MCF-7, fold higher than harmine",MCF-7; compared with harmine IC50,twofold
same,SI (MCF-7),MCF-7,>7.2
same,melting point,,225.5 to 229.5 °C (dec.)
same,accumulation of cells in the subG1 phase (apoptotic cells),MCF-7 cells [1],up to 10%
same,effect on G1 phase of cell cycle,MCF-7 cells [1],strong G1 arrest
same,effect on percentage of cells in S phase,MCF-7 cells [1],reduced the percentage of cells in the S phase; also recorded: drastic reduction in the percentage of cells in the S phase
same,IC50,"HCT116; HCT-116, MTT, 72 h, mean ± SD",4.7 ± 0.6 µM
same,SI (HCT116),HCT116,>10.6
same,intracellular distribution,MCF-7 cells [2],"predominantly cytoplasmic distribution; also recorded: localized exclusively in the cytoplasm; also recorded: localization within the cytoplasm, but not within the nucleus"
same,IC50,"HEK293T; MTT, mean ± SD, non-cancer cell line",> 50 µM
same,SIs (selectivity towards cancer cells in comparison to HEK293T),HEK293T; cancer cell line not specified (MCF-7 or HCT116),> 7.2
same,IC50,"SW620; SW-620, MTT, 72 h, mean ± SD",20.8 ± 0.4 µM
"COc1ccc2c(c1)[nH]c1c(C)nccc12 [HAR, harmine]",IC50,"HepG2; HepG2, 72 h",18.7 ± 0.8 µM
same,IC50,"MCF-7; MCF7, 72 h",13.5 ± 1.1 µM
same,SI (MCF-7),MCF-7,0.9
same,accumulation of cells in the subG1 phase (apoptotic cells),MCF-7 cells [1],≤ 15%
same,effect on G1 phase of cell cycle,MCF-7 cells [1],G1 delay
same,effect on percentage of cells in S phase,MCF-7 cells [1],reduction in cells in the S phase
same,effect on G2/M phase of cell cycle,MCF-7 cells [1]; after 48 h,additional accumulation of cells in the G2/M phase
same,IC50,"HCT116; HCT-116, 72 h",4 ± 0.8 µM
same,SI (HCT116),HCT116,3.2
same,IC50,HEK293T,12.6 ± 0.8 µM
same,IC50,"SW620; SW-620, 72 h",4.7 ± 0.6 µM
O=c1cc(-c2nccc3c2[nH]c2ccccc23)c2cc(Cl)ccc2o1 [coumarin–β-carboline hybrid],GI50,HeLa,67.5 µM
COc1cc(-c2nc(Cn3cc(CN4C(=O)c5ccc(C)cc5C4=O)nn3)cc3c2[nH]c2ccccc23)cc(OC)c1OC [β-carboline–triazole hybrid],IC50,HT-29,3.67 µM
same,IC50,HGC-27,5.44 µM

# Reference: article PMC8587047, “Synthesis and Biological Evaluation of Harmirins, Novel Harmine–Coumarin Hybrids as Potential Anticancer Agents” (Molecules, 2021)
